Results as given in article PMC4520625 (Biochemistry, 2015).

Experiments:
[1] = molecular target: N-terminal domain of galectin-9 (Homo sapiens, UniProt O00182); assay type: cell-based; details: CHO wild-type cells, 1 mM
galectin-3 = galectin-3 (Homo sapiens, UniProt P17931); experiment: Cell-based assay: inhibition of galectin-3 surface staining of SW480 cells; details: peptides at up to 1 mM
galectin-3 (full-length) = galectin-3 (full-length) (Homo sapiens, UniProt P17931); experiment: Isothermal titration calorimetry, full-length galectin-3; assay type: binding
galectin-3 (full-length), sequence (P17931 whole entry): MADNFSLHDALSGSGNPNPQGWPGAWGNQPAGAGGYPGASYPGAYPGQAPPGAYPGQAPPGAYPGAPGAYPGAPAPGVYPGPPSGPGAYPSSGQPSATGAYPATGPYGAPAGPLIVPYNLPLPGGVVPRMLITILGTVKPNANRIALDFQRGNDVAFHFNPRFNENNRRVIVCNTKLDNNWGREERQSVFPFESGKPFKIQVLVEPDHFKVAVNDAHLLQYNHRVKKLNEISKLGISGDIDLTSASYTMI

galectin-3 CRD = galectin-3 CRD (Homo sapiens, UniProt P17931); experiment: Isothermal titration calorimetry, galectin-3 CRD; assay type: binding
galectin-3 CRD, sequence (P17931 118-248 limits assumed): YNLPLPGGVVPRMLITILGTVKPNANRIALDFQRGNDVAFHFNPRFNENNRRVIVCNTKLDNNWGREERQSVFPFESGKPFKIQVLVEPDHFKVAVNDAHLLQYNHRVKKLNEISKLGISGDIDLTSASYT

N-terminal domain of galectin-9, sequence (O00182 1-148): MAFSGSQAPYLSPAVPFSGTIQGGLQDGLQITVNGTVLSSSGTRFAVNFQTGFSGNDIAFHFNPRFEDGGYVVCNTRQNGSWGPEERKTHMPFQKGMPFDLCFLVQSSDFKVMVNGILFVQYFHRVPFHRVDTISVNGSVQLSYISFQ
galectin-3, sequence (P17931 whole entry): as the sequence (P17931 whole entry) above

Row | inhibition of galectin-9 binding to cells (in words) [1] | inhibition of galectin-3 binding to cells (in words) (galectin-3) | Kd (galectin-3 (full-length)) | n (stoichiometry) (galectin-3 (full-length); full-length galectin-3, ITC) | –TΔS (galectin-3 (full-length); full-length galectin-3, ITC) | –ΔH (galectin-3 (full-length); full-length galectin-3, ITC) | Ka (galectin-3 (full-length); full-length galectin-3, ITC, 25 °C, pH 7.2) | Kd (galectin-3 CRD) | n (stoichiometry) (galectin-3 CRD; galectin-3 CRD, ITC) | –TΔS (galectin-3 CRD; galectin-3 CRD, ITC) | –ΔG (galectin-3 CRD; galectin-3 CRD, ITC) | –ΔH (galectin-3 CRD; galectin-3 CRD, ITC) | Ka (galectin-3 CRD; galectin-3 CRD, ITC, 25 °C, pH 7.2) | Structure (SMILES)
1 | inhibitory | – | – | – | – | – | – | – | – | – | – | – | – | OC[C@H]1O[C@@H](O[C@H]2[C@H](O)[C@@H](O)C(O)O[C@@H]2CO)[C@H](O)[C@@H](O)[C@H]1O (mixture of isomers) [Lac, lactose]
2 | inhibitory | less active than Lac | – | – | – | – | – | – | – | – | – | – | – | CC(=O)N[C@H]1C(O)O[C@H](CO)[C@H](O)[C@@H]1O (some centres unmarked) [GalNAc, N-acetylgalactosamine]
3 | – | – | 245 µM | 0.82 | 3.30 kcal/mol | 8.74 kcal/mol | 0.40 ×10^–4 M^–1 | 248 µM | 0.93 | 9.11 kcal/mol | 4.94 kcal/mol | 14.05 kcal/mol | 0.40 ×10^–4 M^–1 | CC(=O)N[C@H]1C(O)O[C@H](CO)[C@H](O)[C@@H]1O[C@@H]1O[C@H](CO)[C@H](O)[C@H](O)[C@H]1O (stereo partly drawn) [TF, 2-acetamido-2-deoxy-3-O-(β-D-galactopyranosyl)-D-galactopyranose]
